From PubChem BioAssay (NCI)
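Each compound was tested at five concentrations against cells in 96-well plates for 48 hours. At the GI50, growth is halved. TGI marks complete inhibition of growth.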

Tests used:
Assay in all cases: NCI-60 cell line screen, 48 h
[1] = tested on: MALME-3M melanoma
[2] = tested on: DU-145 prostate
[3] = tested on: NCI/ADR-RES ovarian
[4] = tested on: HCT-116 colon
[5] = tested on: HL-60(TB) leukemia
[6] = tested on: SF-295 CNS
[7] = tested on: 786-0 renal
[8] = tested on: CAKI-1 renal
[9] = tested on: NCI-H226 lung
[10] = tested on: BT-549 breast

SMILES	GI50 [1] [µM]	TGI [1] [µM]	GI50 [2] [µM]	TGI [2] [µM]	GI50 [3] [µM]	TGI [3] [µM]	GI50 [4] [µM]	TGI [4] [µM]	GI50 [5] [µM]	TGI [5] [µM]	GI50 [6] [µM]	TGI [6] [µM]	GI50 [7] [µM]	TGI [7] [µM]	GI50 [8] [µM]	TGI [8] [µM]	GI50 [9] [µM]	TGI [9] [µM]	GI50 [10] [µM]	TGI [10] [µM]
COc1ccc(C2CC(=O)Nc3c2c(C)nn3-c2nc3ccccc3[nH]2)cc1 (stereo not given)	2.22	8.04	3.64	16.8	5.61	> 100	2.12	4.38	3.13	9.83	1.7	4.19	3.82	> 33.3	2.96	9.12	2.58	7.9	3.33	20
C=C1C(=O)O[C@H]2[C@H]1CC/C(COC(=O)NCCc1ccc(OC)cc1)=C\CC[C@@]1(C)O[C@@H]21	2.44	6.7	1.92	5.16	10	32.6	1.34	2.84	2.34	5.72	13.5	27.4	1.76	4.22	2.52	7.53	4.11	16.4	2.12	6.41
CCN(CC)c1ccc(/C=N/NC(=O)c2ccc(Nc3ccnc(C(F)(F)F)c3)cc2)c(O)c1	0.482	5.7	0.362	> 46.9	0.598	17.6	0.141	1.34	0.258	0.791	0.122	0.927	0.188	0.447	0.268	2.07	0.288	2.34	0.38	> 34.9
Cc1c(C(=O)/C=C/c2ccc(O)cc2)nnn1-c1ccnc2c(C(F)(F)F)cccc12	12.2	75.3	30.1	> 100	13.9	> 100	6.66	> 100	4.01	31.4	25.8	> 100	> 100	> 100	28.6	> 100	27.3	> 100	60.2	> 100
Clc1nc(Cl)c2ncn(C/C=C\Cn3cnc4c(Cl)nc(Cl)nc43)c2n1	2.34	4.26	1.54	2.89	2.46	8.01	1.48	3.26	3.64	> 100	1.54	3.06	2.6	6.88	1.16	2.41	2.53	6.23	2.03	5.01
[N-]=[N+]=Nc1ncc(-c2ccc(C(F)(F)F)cc2)c(NC2CCCCCC2)n1	> 10	> 10	> 10	> 10	> 10	> 10	> 10	> 10	> 10	> 10	> 10	> 10	> 10	> 10	> 10	> 10	> 10	> 10	> 10	> 10
Nc1nc(-n2cccn2)nc(-n2cccn2)c1Br	> 100	> 100	> 100	> 100	> 100	> 100	> 100	> 100	> 100	> 100	> 100	> 100	> 100	> 100	93.7	> 100	> 100	> 100	> 100	> 100
CCN(CC)CCC(=O)Nc1cccc2c1C(=O)c1c(c(O)c3ccccc3c1O)C2=O	26.9	88.7	15.5	61.2	3.94	40.4	8.8	> 100	> 100	> 100	12.8	> 100	2.08	4.39	> 100	> 100	17.1	> 100	19.5	52.3
CC(=O)OCC(=O)[C@@]1(O)[C@H](C)C[C@H]2[C@@H]3C=C(C)C4=Cc5c(cnn5-c5ccc(F)cc5)C[C@]4(C)[C@H]3[C@@H](O)C[C@@]21C	2.36	8.98	2.03	5.17	1.9	6.82	1.66	3.5	4.1	9.02	0.982	5.13	1.06	2.55	2.57	10	2.23	9.08	1.77	4.78
COc1ccc(/C=C/C(=O)c2ccc(Nc3ncnc4ccccc34)cc2)cc1OC	13.8	> 100	8.16	> 100	3.82	> 100	0.547	16.8	20.7	> 100	6.25	> 100	7.96	> 100	16.8	> 100	3.53	31.9	3.22	32
COC(=O)Nc1ccc2ccc3c(NC(=O)OC)ccc4ccc1c2c43 (tested in a mixture with another compound)	7.43	> 50	14.8	> 50	4.59	19.2	5.43	> 50	9.95	> 50	5.25	30.2	12.2	41.2	6.44	27.4	9.2	31.3	5.5	14
O=[N+]([O-])c1cccc(-c2nc3sccn3c2-c2ccnc(NCCCNS(=O)(=O)c3ccc(F)cc3)n2)c1	2	6.76	2.65	12.9	1.85	7.31	2.85	> 100	2.55	6.69	2.62	8.15	7.39	> 100	2.33	> 100	1.95	7.6	2.14	7.03
